One series has as its system mouse acinar cells. Description: Total cholesterol content of mouse acinar cells (ex vivo pancreatitis models or cholesterol chelator). The format is cell-based. More on the design: total cholesterol in acinar cells, physiologic doses: dose or concentration left out as unconfirmed. The settings on record: for cholesterol overload, mouse acinar cells: ex-vivo pancreatitis, 1 h, 100 nM CCK, 1 mM carbachol or 500 μM TLCS. The protocol:
(§1) FIGS. 8A-8M show derangement of cholesterol metabolism in experimental pancreatitis. Characteristics of cholesterol metabolism were measured, as detailed in FIGS. 4A-4R, in pancreas of WT mice subjected to pancreatitis induced with cerulein (CER-AP), L-arginine (Arg-AP), or CDE diet (CDE-AP) (A, B, and E-G); ex vivo pancreatitis induced in WT mouse (C and I-M) or human acinar cells (D) with 100 nM CCK (CCK-AP) or 1 mM carbachol; and isolated pancreatic mitochondria (H). (B) Cholesterol ester (CE) heatmap; each column represents an individual mouse. (F) IB analysis of the indicated proteins. (G) LAL activity was measured by a fluorogenic assay (n=6 mice per condition). (H) Cholesterol content was measured by enzymatic assay. (I-M) Filipin colocalization with indicated proteins was quantified as detailed in FIGS. 2A-2L. Each symbol in A, C-E, and H represents an individual mouse, or cell or mitochondria preparation (n=3-15 per condition). Each symbol in J, K, and M corresponds to 20-30 cells in a different field (n=10-20 fields from 3 cell preparations per condition). Values are mean±SEM. *P<0.05, **P<0.01, ***P<0.001 vs. the same parameter in control/untreated pancreas, acinar cells or isolated mitochondria. Significance was determined by 2-tailed Student's t test (B, E, H, J, K, and M) or 1-way ANOVA followed by Tukey's multiple comparison test (A, C, and D). Scale bars: 10 μm.
(§2) Parameters of cholesterol metabolism were measured in (A, B, E, F) pancreas of mice subjected to pancreatitis induced with cerulean (CER-AP), L-arginine (Arg-AP), or combination of EtOH+palmitoleic acid (EtOH+POA); and (C) ex-vivo models on mouse and human acinar cells treated for 1 h with 100 nM CCK, […] or 500 μM TLCS. In (A), each column in CE heatmap represents an individual mouse. (B, C) Total cholesterol content was measured with cholesterol assay kit (Abcam, ab65390). […] Each symbol corresponds to 20-30 cells in each of 8 high-expression (qPCR) of proteins regulating cholesterol synthesis (4 mice/group). (B-D) Each symbol represents an individual animal or cell preparation. (A-D, F) Values are mean±SE (*p<0.05, **p<0.01, ***p<0.001 vs saline or control). Signficance was determined by 2-tailed student's t test.
(§3) Ex vivo pancreatitis models were performed on mouse and human acinar cells, and human pancreas slices by incubation with supramaximal CCK (100 nM) or carbachol (1 mM), as described previously (80, 81).
(§4) Total cholesterol content was measured with Cholesterol Assay kit per manufacturer's instructions. Samples of mouse pancreas and liver, cell pellet homogenates, subcellular fractions, isolated mitochondria, and serum were diluted in the reaction buffer containing cholesterol probe and incubated at 37° C. for 1 h in the dark. To measure total cholesterol, the samples were subjected to digestion with cholesterol esterase. To measure non-esterified cholesterol, the esterase was omitted from the assay.
Fluorescence intensity (for cholesterol) and absorbance (for TAG) were measured in a Tecan microplate reader. Each measurement was in duplicate, and the values were normalized per mg total protein in the sample.

Another series relates to human acinar cells. Kind of series: Total cholesterol content of human acinar cells (ex vivo pancreatitis models). The format is cell-based. The conditions noted are these: for cholesterol overload, human acinar cells: ex-vivo pancreatitis, 1 h, 100 nM CCK, 1 mM carbachol or 500 μM TLCS. The protocol:
as §1, §2, §3
Human pancreas slices were obtained as in (12), from portions of live normal human pancreata from pre-terminal donors that were not used for transplantation and diverted to research (provided by Trillium Gift of Life Network, Toronto, Ontario, year 2020) or from normal portions of pancreatic cancer operations. Pancreas was cut into ~3×3×3 mm pieces and embedded with 37° C. low melting 3.8% agarose gel in extracellular solution containing (mM): 125 NaCl, 2.5 KCl, 1 MgCl2, 2 CaCl2, 1.25 NaH2PO4, 26 NaHCO3, 2 sodium pyruvate, 0.25 ascorbic acid, 3 myo-inositol, 6 lactic acid, and 7 glucose, and placed on ice to solidify the gel. The gelled tissue blocks were sliced with Vibratome into 120 μm-thick slices; slices were washed with the same extracellular solution, placed in 199 medium containing 0.1 mg/mL soybean trypsin inhibitor, and treated with CCK-8 (CCK) or carbachol for ex-vivo pancreatitis.
Total cholesterol content was measured with Cholesterol Assay kit per manufacturer's instructions. […]

In series [1] the target is T1, NPC1 (Mus musculus, UniProt O35604).
T1 sequence (O35604 23-1277): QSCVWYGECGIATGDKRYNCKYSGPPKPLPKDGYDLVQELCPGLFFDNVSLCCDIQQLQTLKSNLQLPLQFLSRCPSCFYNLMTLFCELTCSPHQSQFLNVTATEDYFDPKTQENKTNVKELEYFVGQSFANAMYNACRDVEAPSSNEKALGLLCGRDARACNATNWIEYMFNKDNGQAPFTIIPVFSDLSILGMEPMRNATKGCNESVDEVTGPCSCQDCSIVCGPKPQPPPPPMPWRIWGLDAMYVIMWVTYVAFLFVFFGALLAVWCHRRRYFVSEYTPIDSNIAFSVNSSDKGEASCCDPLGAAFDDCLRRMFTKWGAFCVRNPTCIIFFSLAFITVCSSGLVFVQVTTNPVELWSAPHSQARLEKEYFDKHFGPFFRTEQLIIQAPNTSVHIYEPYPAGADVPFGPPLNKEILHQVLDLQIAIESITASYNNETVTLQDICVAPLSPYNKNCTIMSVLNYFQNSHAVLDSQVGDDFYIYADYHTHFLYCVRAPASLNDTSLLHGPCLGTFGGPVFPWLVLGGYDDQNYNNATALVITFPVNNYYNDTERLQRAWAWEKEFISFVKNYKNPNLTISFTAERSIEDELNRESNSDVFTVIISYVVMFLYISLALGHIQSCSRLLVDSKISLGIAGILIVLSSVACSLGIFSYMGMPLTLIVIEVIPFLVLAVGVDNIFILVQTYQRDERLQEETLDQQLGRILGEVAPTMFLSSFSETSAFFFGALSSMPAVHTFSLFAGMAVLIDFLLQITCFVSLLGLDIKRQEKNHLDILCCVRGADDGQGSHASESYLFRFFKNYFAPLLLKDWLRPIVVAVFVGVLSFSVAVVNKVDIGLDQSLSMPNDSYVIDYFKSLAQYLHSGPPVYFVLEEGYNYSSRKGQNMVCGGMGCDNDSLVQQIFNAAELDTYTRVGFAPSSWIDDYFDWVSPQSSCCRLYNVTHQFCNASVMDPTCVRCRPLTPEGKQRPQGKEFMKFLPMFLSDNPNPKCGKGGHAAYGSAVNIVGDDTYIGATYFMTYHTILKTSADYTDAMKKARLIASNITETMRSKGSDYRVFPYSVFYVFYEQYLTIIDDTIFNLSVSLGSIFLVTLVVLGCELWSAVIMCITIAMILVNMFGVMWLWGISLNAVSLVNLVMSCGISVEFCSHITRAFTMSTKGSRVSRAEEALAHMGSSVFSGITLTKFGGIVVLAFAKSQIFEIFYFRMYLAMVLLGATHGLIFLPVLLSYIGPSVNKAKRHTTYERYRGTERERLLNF
Kind of series: Effects of U18666A with LDL on WT acinar cells. The format is cell-based. The conditions noted are these: LDL 30 μg/mL + 10 μM U18666A, 16 hours. The procedure: (§5) FIGS. 10A-10N show deranged cholesterol metabolism causes acinar cell damage, while its normalization ameliorates experimental pancreatitis. (A-D) Cholesterol content and trypsin activity were measured (per mg protein) in WT mouse acinar cells incubated for 1 hour without and with methyl-β-cyclodextrin (MCD; 10 mM) or cholesterol-loaded MCD (MCD-Chol; 200 μg/mL), in the presence or absence of 100 nM CCK. Values are expressed relative to those in cells without MCD/MCD-Chol. (E-J) WT mice received daily i.p. injections of the LXR agonist T0901317 (T09), simvastatin (Sim; 20 mg/kg each), or vehicle. On day 4, mice were subjected to CER-AP and pancreata collected for analyses (see also FIG. 20). Cholesterol content (E), trypsin activity (F), and pancreas histopathology (H&E staining; G) were measured. (H, I, L, and N) IB analysis of markers/mediators of autophagy (LC3, p62), ER stress (CHOP, GRP-78), and mitophagy (Parkin). Ub, ubiquitylated proteins. (J) Mitochondrial fragmentation was assessed by immunostaining for Tom20, as detailed in FIG. 7G. (K and L) Mouse acinar cells were treated for 16 hours with LDL (30 μg/mL) or the combination of LDL and 10 μM U18666A. (M and N) Mice received injections of U18666A as detailed in FIG. 9B. Pancreas histopathology (H&E staining; M) and levels of autophagy markers/mediators (N) were measured. Each symbol in A-F and I represents an individual mouse or cell preparation. Values are mean±SEM from 3 to 7 mice or cell preparations per condition. ^§ P<0.05, ^§§ P<0.01 vs. control cells (without MCD/MCD-Chol). ***P<0.001 vs. saline-treated mice. ^#P<0.05, ^##P<0.01, ^###P<0.001 vs. CER-AP alone (no inhibitors). Significance was determined by 2-tailed Student's t test (A-D) or 1-way ANOVA followed by Tukey's multiple comparison test (E, F, and I). Scale bars: 10 μm.
To examine the effect of disrupted cholesterol turnover, WT acinar cells were incubated with LDL-cholesterol in the presence and absence of the NPC1 inhibitor U18666A. U18666A caused cholesterol accumulation in LE/Ly (filipin staining; FIG. 10K), resulting in impaired autophagy (manifested by concomitant accumulation of LC3-II and ubiquitylated proteins) and increases in CHOP and Parkin (FIG. 10L).
Immunoblots were developed using enhanced chemiluminescence detection kit (Pierce), and band intensities were quantified by densitometry using FluorChem HD2 imaging system (Alpha Innotech/ProteinSimple).
Staining for neutral lipids and free cholesterol was performed by incubation of fixed-frozen tissue sections or fixed cells with, respectively, 2 μg/ml BODIPY493/503 for 45 min or 100 µg/ml filipin for 2 h at room temperature. For double labeling, BODIPY493/503 or filipin were applied after fixed-frozen tissue or cell sections incubated with primary and secondary antibodies.

The target in series [2] is T1, NPC1. Description: Effects of NPC1 inhibitor U18666A on WT mouse pancreas. It is filed as in vivo. The settings on record: 15 days. The protocol: FIGS. 9A-9E show cerulein pancreatitis decreases pancreatic levels of GNPTAB and mediators of cholesterol trafficking through LE/Ly. (A, D, and E) IB analysis of the indicated proteins in pancreas of WT mice subjected to CER-AP and in Gnptab^−/− mice. NS, nonspecific band. (B and C) Cholesterol content was measured in pancreas of (B) WT mice that received daily i.p. injections of the NPC1 inhibitor U18666A (10 mg/kg) or vehicle for 15 days and (C) Lamp2^−/− mice. Each symbol in B, C, and E represents an individual mouse. Values are mean±SEM from 3 to 5 mice per condition. ***P<0.001 vs. the same parameter in WT control/untreated or saline-treated mice. Significance was determined by 2-tailed Student's t test (B and C) or 1-way ANOVA followed by Tukey's multiple comparison test (E).
as §5
viii. In Vivo Treatments of Mice
12-week-old WT mice were subjected for 4 consecutive days to daily i.p. injections of 20 mg/kg simvastatin (8,9) or 20 mg/kg T0901317 (10); or 10 mg/kg U18666A for 15 days (11). Control mice received vehicle injections. Some of the simvastatin- and T0901317-treated mice were subjected to CER-AP on day 4, as indicated in corresponding figures.
as §4
Pancreatitis responses were measured as previously described (1-7). Serum amylase and lipase were measured in a Hitachi 707 analyzer. Acinar cell vacuolization and necrosis were quantified on H&E stained pancreatic tissue sections; at least 1000 acinar cells/mouse were analyzed in several high-power fields. ATP was measured in tissue homogenates using bioluminescence assay (3-5).

Where [3] appears, read: supramaximal (100 nM) CCK-8 or carbachol, ex vivo AP.

Consider `C[C@H](CCC(=O)NCCS(=O)(=O)O)[C@H]1CC[C@H]2[C@@H]3CC[C@@H]4C[C@H](OS(=O)(=O)O)CC[C@]4(C)[C@H]3CC[C@]12C` [TLCS], for which, in the series with mouse acinar cells, the “cholesterol overload, mouse acinar cells” value is listed as “prominent”. In addition, the “cholesterol overload, human acinar cells” value with human acinar cells is reported as “prominent”.
As to `C[N+](C)(C)CCOC(N)=O` [carbachol], the “cholesterol overload, mouse acinar cells” value in the series with mouse acinar cells is “prominent”. The “total cholesterol in acinar cells, physiologic doses” value in the series with mouse acinar cells (physiologic doses of CCK or carbachol) was “did not alter”. Besides, the “cholesterol content, mouse acinar cells, supramaximal stimulation” value with mouse acinar cells (setting [3]) is listed as “increased”. Also, in the series with human acinar cells, the “cholesterol overload, human acinar cells” value was “prominent”. Also, the “cholesterol content, human acinar cells, supramaximal stimulation” value with human acinar cells (setting [3]) is “increased”.
Take `CCN(CC)CCO[C@H]1CC[C@@]2(C)C(=CC[C@@H]3[C@@H]2CC[C@]2(C)C(=O)CC[C@@H]32)C1` [U18666A, 3-beta-[2-(diethylamino)ethoxy] androst-5-en-17-one]: at NPC1 [1], the “CHOP, acinar cells” value is recorded as “increases”; the “LC3-II (impaired autophagy), acinar cells” value is on record as “accumulation”; the “Parkin, acinar cells” value is “increases”; the “cholesterol in LE/Ly (filipin staining)” value is listed as “accumulation”. Further, on NPC1 [1], the “ubiquitylated proteins (impaired autophagy), acinar cells” value is reported as “accumulation”. The “cholesterol content in WT mouse pancreas, U18666A” value at NPC1 [2] (10 mg/kg daily i.p.) is “elevated”. Also, on NPC1 [2] (10 mg/kg i.p. daily), the “LC3-II in mouse pancreas” value is “accumulation”; the “acinar cell vacuolization, mice” value was “increased”; the “inflammation, mouse pancreas” value is recorded as “inflammation”; the “p62 in mouse pancreas” value is “accumulation”. Besides, on NPC1 [2] (10 mg/kg i.p. daily), the “ubiquitylated proteins in mouse pancreas” value was “accumulation”. Further, on NPC1 [2] (10 mg/kg i.p. daily, up to ~), the “necrosis, mouse pancreas” value is at most 20%.

The record behind these values is patent US20260325485A1, “COMPOSITIONS AND METHODS FOR TREATING PANCREATITIS” (The United States Government as represented by the …, priority 2022, published 2026).
